pIC50: −log10 of the molar value.

Sequence of human CXCR3A (P49682 whole entry): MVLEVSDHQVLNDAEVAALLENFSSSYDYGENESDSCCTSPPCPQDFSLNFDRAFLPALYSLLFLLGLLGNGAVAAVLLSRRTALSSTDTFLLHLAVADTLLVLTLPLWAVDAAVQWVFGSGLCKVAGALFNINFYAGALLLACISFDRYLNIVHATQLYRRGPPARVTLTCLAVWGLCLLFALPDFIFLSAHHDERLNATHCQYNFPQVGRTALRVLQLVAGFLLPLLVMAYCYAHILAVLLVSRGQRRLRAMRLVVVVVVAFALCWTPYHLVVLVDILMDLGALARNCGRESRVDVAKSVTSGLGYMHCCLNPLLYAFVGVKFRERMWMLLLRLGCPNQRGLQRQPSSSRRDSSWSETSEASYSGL

In the assay the target is human CXCR3A (Homo sapiens (Human), UniProt P49682). The experiment in a line: FLIPR assay (inhibition of CXCL10-induced calcium signal). The format is cell-based. The following applies: engineered CHO-K1 cells expressing human CXCR3A coupled to Galpha(16); Fluo-4-AM; CXCL10 agonist 20 nM; mean values where determined several times. On the procedure:
The bioactivity of compounds is tested in a fluorometric imaging plate reader (FLIPR: Molecular Devices) using engineered CHO-K1 cells expressing the human CXCR3A (GenBank: AY242128) coupled to a G protein (Galpha(16)). Cells are plated the day prior to bioassay in F12 medium supplemented with 10% FBS and G418 and hygromycin antibiotics to maintain recombinant selection. At the day of bioassay, cells are washed and dye loaded for one hour with Fluo-4-AM (Invitrogen) in Hanks Balanced Salt Solution (Invitrogen), buffered with 20 mM Hepes at pH 7.4 and sodium bicarbonate (0.038%), containing 5 mM probenecid. This buffer, but lacking the dye and containing probenecid at a concentration of 2.5 mM, is also used for washing steps (wash buffer); or lacking both dye and probenecid but supplemented with 0.1% BSA for compound dilution steps (dilution buffer). Cells are washed free of excess dye and 60 microliter of wash buffer is added. Stock solutions of test compounds are made up at a concentration of 10 mM in DMSO, and serially diluted in dilution buffer to concentrations required for inhibition dose response curves. After a 10 minute incubation period at 37° C., 10 microliters of each compound dilution are transferred from a compound plate to the plate containing the recombinant cells in the FLIPR instrument according to the manufacturer's instructions. Following basal readings, 10 microliter CXCL10 agonist at a concentration of 20 nM (from Peprotech) is added, again using the FLIPR instrument. Changes in fluorescence are monitored before and after addition of the test compounds. Emission peak values above base level after CXCL10 addition are exported after base line subtraction.
The calculated IC50 values may fluctuate depending on the daily assay performance. Fluctuations of this kind are known to those skilled in the art. In the case where IC50 values have been determined several times for the same compound, mean values are given.
Turning to `Cc1cc(C)n(CC(=O)N2CCN(c3ccc(C(F)(F)F)c4c3CN(c3ncc(Cn5cccn5)s3)CC4)C[C@H]2C)n1` [Example 1, 2-(3,5-Dimethyl-pyrazol-1-yl)-1-{(R)-2-methyl-4-[2-(5-pyrazol-1-ylmethyl-thiazol-2-yl)-5-trifluoromethyl-1,2,3,4-tetrahydro-isoquinolin-8-yl]-piperazin-1-yl}-ethanone], the pIC50 is 8.35. For `Cc1cc(C)n(CC(=O)N2CCN(c3ccc(C(F)(F)F)c4c3CN(c3nc(C(F)(F)F)cs3)CC4)C[C@H]2C)n1` [Example 2, 2-(3,5-Dimethyl-pyrazol-1-yl)-1-{(R)-2-methyl-4-[5-trifluoromethyl-2-(4-trifluoromethyl-thiazol-2-yl)-1,2,3,4-tetrahydro-isoquinolin-8-yl]-piperazin-1-yl}-ethanone], the pIC50 was 8.22. As for `CCc1csc(N2CCc3c(C(F)(F)F)ccc(N4CCN(C(=O)Cn5nc(C)cc5C)[C@H](C)C4)c3C2)n1` [Example 3, 2-(3,5-Dimethyl-pyrazol-1-yl)-1-{(R)-4-[2-(4-ethyl-thiazol-2-yl)-5-trifluoromethyl-1,2,3,4-tetrahydro-isoquinolin-8-yl]-2-methyl-piperazin-1-yl}-ethanone], the pIC50 was 7.82.

For the compound `Cc1cc(C)n(CC(=O)N2CCN(c3ccc(C(F)(F)F)c4c3CN(c3nc(C(C)(C)C)cs3)CC4)C[C@H]2C)n1` [Example 4, 1-{(R)-4-[2-(4-tert.-Butyl-thiazol-2-yl)-5-trifluoromethyl-1,2,3,4-tetrahydro-isoquinolin-8-yl]-2-methyl-piperazin-1-yl}-2-(3,5-dimethyl-pyrazol-1-yl)-ethanone], the pIC50 is 7.69. As for `Cc1cc(C)n(CC(=O)N2CCN(c3ccc(C(F)(F)F)c4c3CN(c3nc(-c5ccccn5)cs3)CC4)C[C@H]2C)n1` [Example 5, 2-(3,5-Dimethyl-pyrazol-1-yl)-1-{(R)-2-methyl-4-[2-(4-pyridin-2-yl-thiazol-2-yl)-5-trifluoromethyl-1,2,3,4-tetrahydro-isoquinolin-8-yl]-piperazin-1-yl}-ethanone], the pIC50 is 7.96. For `Cc1cc(C)n(CC(=O)N2CCN(c3ccc(C(F)(F)F)c4c3CN(c3ncc(Cl)s3)CC4)C[C@H]2C)n1` [Example 6, 1-{(R)-4-[2-(5-Chloro-thiazol-2-yl)-5-trifluoromethyl-1,2,3,4-tetrahydro-isoquinolin-8-yl]-2-methyl-piperazin-1-yl}-2-(3,5-dimethyl-pyrazol-1-yl)-ethanone] the value was 7.74. For the compound `Cc1cc(C)n(CC(=O)N2CCN(c3ccc(C(F)(F)F)c4c3CN(c3nc(C#N)cs3)CC4)C[C@H]2C)n1` [Example 7, 2-(8-{(R)-4-[2-(3,5-Dimethyl-pyrazol-1-yl)-acetyl]-3-methyl-piperazin-1-yl}-5-trifluoromethyl-3,4-dihydro-1H-isoquinolin-2-yl)-thiazole-4-carbonitrile], the pIC50 was 7.53. With `Cc1cc(C)n(CC(=O)N2CCN(c3ccc(C(F)(F)F)c4c3CN(c3ncc(C#N)s3)CC4)C[C@H]2C)n1` [Example 8, 2-(8-{(R)-4-[2-(3,5-Dimethyl-pyrazol-1-yl)-acetyl]-3-methyl-piperazin-1-yl}-5-trifluoromethyl-3,4-dihydro-1H-isoquinolin-2-yl)-thiazole-5-carbonitrile], the pIC50 is 8.05. With `Cc1ccc2nc(N3CCc4c(C(F)(F)F)ccc(N5CCN(C(=O)Cn6nc(C)cc6C)[C@H](C)C5)c4C3)sc2c1` [Example 9, 2-(3,5-Dimethyl-pyrazol-1-yl)-1-{(R)-2-methyl-4-[2-(6-methyl-benzothiazol-2-yl)-5-trifluoromethyl-1,2,3,4-tetrahydro-isoquinolin-8-yl]-piperazin-1-yl}-ethanone] the figure was 7.86. In the case of `Cc1cc(C)n(CC(=O)N2CCN(c3ccc(C(F)(F)F)c4c3CN(c3nc5ccc(F)cc5s3)CC4)C[C@H]2C)n1` [Example 10, 2-(3,5-Dimethyl-pyrazol-1-yl)-1-{(R)-4-[2-(6-fluoro-benzothiazol-2-yl)-5-trifluoromethyl-1,2,3,4-tetrahydro-isoquinolin-8-yl]-2-methyl-piperazin-1-yl}-ethanone], the pIC50 was 8.02.

The term pIC50 denotes the IC50 on a negative log10 scale, so that one unit is a factor of ten.
